Experimental data reported in patent US6699825B2, “Acidic hard-surface antimicrobial cleaner” (S.C. Johnson & Son, Inc., priority 2001, dated 2004).

Tests used:
[1] = system: Klebsiella pneumoniae; assay: EPA Non-Food Contact Sanitizer Test DIS/TSS-10, glass slide, 5% fetal bovine serum; type: cell-based; conditions: K. pneumoniae; dilute aqueous acidic solution; 1-minute contact
Procedure: (§1) Low-residue hard surface cleaner formulations of the present invention were evaluated for sanitizing efficacy under the United States Environmental Protection Agency's Non-Food Contact Sanitizer Test, DIS/TSS-10 (Jan. 7, 1982). As noted in specific examples, a 30 second or 1 minute contact time using a glass slide test surface was used. As these formulas are to be used as one-step antimicrobial cleaners, fetal bovine serum was added to the innoculum at a concentration of 5.0 percent by weight to simulate an organic soil load such as one would expect to find on a typical non-food contact surface prior to cleaning.
(§2) Efficacy of the test solutions was evaluated versus Staphylococcus aureus (S. aureus), Klebsiella pneumoniae (K. pneumoniae), and Salmonella choleraesius (S. choleraesius). As a control, parallel tests were conducted using a 0.01 percent solution of Triton X-100 (isooctylphenoxyl-polyethoxyethanol with 9-10 moles of oxyethylene) in an identical manner as the test solutions. The results for the test solutions were compared to the control and are reported as “Log Kill” of the test organism versus the control counts in Table 2. A “Log Kill” of 5 means that 99.999 percent of the organism has been killed.

[2] = system: Staphylococcus aureus; assay: as above; type: cell-based; conditions: S. aureus; dilute aqueous acidic solution; 1-minute contact
Procedure: as §1, §2

[3] = cited from earlier work

Row | SMILES | antimicrobial synergy with low levels of organocarboxylic acids [1] | antimicrobial synergy with low levels of organocarboxylic acids [2] | Solubility in water at 20-25° C. [3] | miscibility in water [3]
1 | OCc1ccccc1 [BA, Benzyl Alcohol] | enhanced biocidal efficacy | enhanced biocidal efficacy | 3.8% | 
2 | CCCCCCOCCOCCO [DEGHE, Diethylene Glycol n-Hexyl Ether] | enhanced biocidal efficacy | enhanced biocidal efficacy |  | 
3 | OCCOc1ccccc1 [Eph, Ethylene Glycol Phenyl Ether] | enhanced biocidal efficacy | enhanced biocidal efficacy | 2.3% | 
4 | COC(C)COC(C)CO (centres unmarked) [DPM, Dipropylene Glycol Methyl Ether] | no significant antimicrobial synergy | no significant antimicrobial synergy | Infinite | completely miscible
5 | CCOCCOCCO [Carbitol, Diethylene Glycol Ethyl Ether] | no significant antimicrobial synergy | no significant antimicrobial synergy | Infinite | completely miscible
6 | CCCCCOCCO [EGPE, Ethylene Glycol n-Pentyl Ether] | enhanced biocidal efficacy | enhanced biocidal efficacy | 3.4% | 
7 | CC(C)O [IPA, Iso-propanol] | no significant antimicrobial synergy | no significant antimicrobial synergy | Infinite | completely miscible
